Results: patent US4123613A, “Substituted pyrazines as inhibitors of platelet aggregation” (Societa Farmaceutici Italia S.p.A., priority 1976, dated 1978)
Converted amounts (≈) assume the structure as drawn. Like-named read-outs stand apart in the source and are kept apart here.

Tested on: platelet aggregation (rabbit platelets, ADP-induced)
Assay: ADP-induced platelet aggregation in vitro (turbidimetric method, rabbit platelet-rich plasma)
Format: cell-based
Settings: for Percent inhibition of platelets aggregation / inhibition at 25 µg/mL / inhibition at 50 µg/mL / inhibition at 100 µg/mL / inhibition at 200 µg/mL: tartrate salt; for inhibition at 25 µg/mL / inhibition at 50 µg/mL / inhibition at 100 µg/mL / inhibition at 200 µg/mL: Platelet, read-out: Percent inhibition of platelets aggregation
Procedure: In the biological tests hereafter described, the products were assayed as the tartrate salts.
Male rabbits weighing 2.5-3.5 Kg were used. Fifty four ml of blood were withdrawn from the carotid artery of rabbits anaesthetized with ether.
The PRP was obtained by centrifugation at 400 g for 10 minutes. The concentration of the platelets was adjusted to 250,000/mm^3 by diluting the PRP with PPP prepared by a second centrifugation of the blood samples for about 10 minutes at 2000 g.
The aggregation experiments were generally performed within 1-2 h from the time of blood collection.
In the cuvette of the aggregometer, reagents were added as follows: 0.8 ml drug solution or saline, and 0.2 ml ADP, at the molar concentration of 2.2 × 10^-4. The turbidimetry was checked after 11/2, 3 and 6 minutes. The inhibition of the aggregation is given in the table below as percent of ADP controls at the three times.

[1] = 50 γ/ml, 360 seconds after ADP (2.2 × 10^-4)
[2] = 100 γ/ml, 90 seconds after ADP (2.2 × 10^-4)
[3] = 100 γ/ml, 180 seconds after ADP (2.2 × 10^-4)
[4] = 100 γ/ml, 360 seconds after ADP (2.2 × 10^-4)
[5] = 200 γ/ml, 90 seconds after ADP (2.2 × 10^-4)
[6] = 200 γ/ml, 180 seconds after ADP (2.2 × 10^-4)
[7] = 200 γ/ml, 360 seconds after ADP (2.2 × 10^-4)
[8] = 25 γ/ml, 90 seconds after ADP (2.2 × 10^-4)
[9] = 25 γ/ml, 180 seconds after ADP (2.2 × 10^-4)
[10] = 25 γ/ml, 360 seconds after ADP (2.2 × 10^-4)
[11] = 50 γ/ml, 90 seconds after ADP (2.2 × 10^-4)
[12] = 50 γ/ml, 180 seconds after ADP (2.2 × 10^-4)
[13] = inhibition of platelet aggregation, at all three times

Row | SMILES | Percent inhibition of platelets aggregation [1] [%] | Percent inhibition of platelets aggregation [2] [%] | Percent inhibition of platelets aggregation [3] [%] | Percent inhibition of platelets aggregation [4] [%] | Percent inhibition of platelets aggregation [5] [%] | Percent inhibition of platelets aggregation [6] [%] | Percent inhibition of platelets aggregation [7] [%] | activity (inhibition of platelet aggregation, in words) (at all three times) | Percent inhibition of platelets aggregation [8] [%] | Percent inhibition of platelets aggregation [9] [%] | Percent inhibition of platelets aggregation [10] [%] | Percent inhibition of platelets aggregation [11] [%] | Percent inhibition of platelets aggregation [12] [%] | also measured
1 | CO[C@]12C[C@@H](CNc3cnccn3)CN(C)[C@@H]1Cc1cn(C)c3cccc2c13 [355/895, 2-(10'-methoxy-1',6'-dimethylergoline-8'β-methyl)aminopyrazine] | 5 | 10 | 12 | 20 | 50 | 55 | 62 | very low activity | – | – | – | – | – | –
2 | CO[C@]12C[C@@H](CNc3nccnc3Cl)CN(C)[C@@H]1Cc1cn(C)c3cccc2c13 [355/898, 2-(10'methoxy-1',6'-dimethylergoline-8'β-methyl)amino-3-chloropyrazine] | 45 | 67 | 71 | 76 | 77 | 82 | 83 | – | 17 | 20 | 30 | 35 | 31 | –
3 | COc1nccnc1NC[C@H]1CN(C)[C@@H]2Cc3cn(C)c4cccc(c34)[C@@]2(OC)C1 [355/899, 2-(10'-methoxy-1',6'-dimethylergoline-8'β-methyl)amino-3-methoxypyrazine] | 10 | 30 | 30 | 30 | 60 | 61 | 61 | – | – | – | – | 10 | 9 | –
4 | CO[C@]12C[C@@H](CNc3cncc(Cl)n3)CN(C)[C@@H]1Cc1cn(C)c3cccc2c13 [355/900, 2-(10'-methoxy-1',6'-dimethylergoline-8'β-methyl)amino-6-chloropyrazine] | 30 | 80 | 70 | 80 | 100 | 100 | 100 | very strong activity | 10 | 10 | 10 | 40 | 25 | ED50 [13]: 55 to 70 µg/mL
5 | CO[C@]12C[C@@H](CSc3nccnc3Cl)CN(C)[C@@H]1Cc1cn(C)c3cccc2c13 [355/915, 2-(10'-methoxy-1',6'-dimethylergoline-8'β-methyl)thio-3-chloropyrazine] | 25 | 75 | 75 | 80 | 100 | 100 | 100 | very strong activity | 10 | 10 | 10 | 20 | 15 | ED50 [13]: 55 to 70 µg/mL
6 | CO[C@]12C[C@@H](CSc3cnccn3)CN(C)[C@@H]1Cc1cn(C)c3cccc2c13 [355/917, 2-(10'-methoxy-1',6'-dimethylergoline-8'β-methyl)thiopyrazine] | – | – | – | 10 | 15 | 12 | 35 | very low activity | – | – | – | – | – | –
7 | COc1nccnc1SCC1CN(C)C2Cc3cn(C)c4cccc(c34)C2(OC)C1 (stereo not drawn) [355/918, 2-(10'-methoxy-1',6'-dimethylergoline-8'β-methyl)thio-3-methoxypyrazine] | – | – | – | – | – | – | – | very strong activity | – | – | – | – | – | inhibition at 25 µg/mL (Oryctolagus cuniculus, 25 γ/ml, 90 seconds after ADP (2.2 × 10^-4)): 25%; inhibition at 25 µg/mL (Oryctolagus cuniculus, 25 γ/ml, 180 seconds after ADP (2.2 × 10^-4)): 20%; inhibition at 25 µg/mL (Oryctolagus cuniculus, 25 γ/ml, 360 seconds after ADP (2.2 × 10^-4)): 26%; inhibition at 50 µg/mL (Oryctolagus cuniculus, 50 γ/ml, 90 seconds after ADP (2.2 × 10^-4)): 45%; inhibition at 50 µg/mL (Oryctolagus cuniculus, 50 γ/ml, 180 seconds after ADP (2.2 × 10^-4)): 31%; inhibition at 50 µg/mL (Oryctolagus cuniculus, 50 γ/ml, 360 seconds after ADP (2.2 × 10^-4)): 42%; inhibition at 100 µg/mL (Oryctolagus cuniculus, 100 γ/ml, 90 seconds after ADP (2.2 × 10^-4)): 80%; inhibition at 100 µg/mL (Oryctolagus cuniculus, 100 γ/ml, 180 seconds after ADP (2.2 × 10^-4)): 70%; inhibition at 100 µg/mL (Oryctolagus cuniculus, 100 γ/ml, 360 seconds after ADP (2.2 × 10^-4)): 80%; inhibition at 200 µg/mL (Oryctolagus cuniculus, 200 γ/ml, 90 seconds after ADP (2.2 × 10^-4)): 100%; inhibition at 200 µg/mL (Oryctolagus cuniculus, 200 γ/ml, 180 seconds after ADP (2.2 × 10^-4)): 100%; inhibition at 200 µg/mL (Oryctolagus cuniculus, 200 γ/ml, 360 seconds after ADP (2.2 × 10^-4)): 100%; IC50 (Oryctolagus cuniculus, inhibition of platelet aggregation, at all three times, read-out: ED50 (the source's name)): 55 to 70 µg/mL (≈ 130 to 165 µM)
